Data: patent publication US20260007716A1, “DESLORELIN FOR ATTENUATION OF ANIMAL URINE ODOR” (priority 2022, published 2026)

What was measured:
dogs = details: cited from earlier work
cat = experiment: Safety study in cat and tolerance studies in male and female species; assay type: in vivo; details: safety study in cat, high dose
male cats [1] = experiment: Cat field studies 1 and 2: suppression of fertility, re-implantation and reversibility (Example 4); assay type: in vivo
Method: This example provides the data collected from 2 combined studies (Double-masked Placebo-Controlled randomized) that have been conducted sequentially according to the following schedule: • Study 1: The study 1 has been conducted on a group of 205 male cats divided into two groups, one Control Group that received 1 mL of saline solution (n=51-subcutaneous administration) and one Treated Group (n=154) that received an implant of Suprelorin® 4.7 mg (subcutaneous implant-deslorelin acetate). • Study 2: At the end of a first period of 12 months, the Suprelorin® implant was removed in all the male cats belonging to the Treated Group. 12 male cats of the Treated Group issued from study 1 were then administered saline solution (1 mL subcutaneously) (Saline Group) and 22 cats of the Treated Group issued from Study 1 were re-implanted with a new Suprelorin® 4.7 mg implant for a second period of time of 12 months (Treated twice Group). The efficacy and safety of the re-implantation was followed-up for these supplementary 12 months, i.e. for a total of 24 months.
The observation schedule was as follows: • Study 1: V1: Day −14 to −7; V2: Day 0; V3: 1.5 months±3 days; V4: 3 months±5 days, V5: 6 months±5 days, V6: 9 months±5 days; V7: 12 months±5 days; • Study 2: V8: 12 months±3 days; V9: 13.5 months±3 days; V10: 15 months±5 days; V11: 18 months±5 days; V12: 21 months±5 days; V13: 24 months±5 days.
Regarding the enrolment criteria, in both studies the criteria were as the following: • Domestic Cats • Age >3 MONTHS old or >15 MONTHS in Study 2 • Intact Indoor males • Client-owned (including shelter cats/rehomed by foster families)
With the additional criteria for study 2 of being a success in study 1.
In these studies the following primary endpoints were measured: • For Study 1: the suppression of fertility (Testosterone≤0.10 ng/ml*from V4 until V7*-3 to 12 months) • Study 2: the suppression of fertility (Testosterone≤0.10 ng/ml*from V8 until V13 (12 to 24 months) and the time to reversion effect.
In addition to the safety parameters (Haematology and blood biochemistry, Urinalysis, Local reactions at the implantation site, Change in Body weight, Appetite, Abnormal testicular evaluation, Adverse events), the following secondary endpoints have been reported as well: • Sexual behaviour sum score • Aggression • Vocalization • Urine marking • Urine Smell/odour • Penile Spines • Testicular volume

male cats [2] = experiment: Multi-site field, double-masked, placebo-controlled study of a single 4.7 mg deslorelin implant in male cats (Example 1); assay type: in vivo
Method: The aim of this multi-site field, double-masked, placebo-controlled, randomized study was to confirm that deslorelin implants can be used as a neutering option for male cats and can also reduce their associated tomcat sexual behaviours.
Privately owned indoor male cats [3 months-11 years of age] were allocated to two groups to be either implanted with one 4.7 mg deslorelin implant (Suprelorin® 4.7 mg, Virbac, France) or to receive sodium chloride. The implant and the saline solution were administered subcutaneously between the shoulder blades on day 0 (D0). Serum testosterone concentrations in ng/ml (T), sexual behaviors (presence of urine marking, frequency of vocalization, frequency of aggressiveness) and presence of intact male cat urine odour were assessed until month (M) 12 (D372). General safety assessments, bodyweight, appetite and adverse reactions were regularly followed.
The protocol received ethical approval. The Cochran-Mantel-Haenszel test stratified by center with the RIDIT transformation and the general association statistic were used for comparison between groups.
Among n=205 Male Cats, n=154 received Suprelorin® 4.7 mg (treated group) and n=51 received the saline solution as control group.

[3] = tested on: molecules responsible of urine odor; experiment: LC-MS/MS metabolomic analysis of urine of male cats after deslorelin implant (Examples 2 and 3); assay type: in vivo, cat
Method: A first study A was performed in 2 groups of a total number of 7 male healthy cats old from 12 to 13 months and weighting between 4 and 6 kg in: Control group: n=3, intact males, administered sodium chloride (saline) on day 0 (D0), Chemically treated group: n=4 one implant of Suprelorin® 4.7 mg on day 0 (D0). The study A was conducted for a period of 63 days after the implantation of Suprelorin® 4.7 mg. From […]-7, a clinical examination of the cats was performed (body weight, temperature) and samples of urine and feces were collected. At D0, the cats of the treated group were implanted subcutaneously with Suprelorin® 4.7 mg (Virbac, France). From D7 to […], a weekly clinical examination of the cats was performed (body weight, temperature) and samples urine and feces were collected. […] Thanks to this unusual technic, the metabolomics present in samples have been assessed. […] The workflow template was untargeted metabolomics with statistics to detect unknowns with ID using online Databases and mzLogic.ons obtained from positive and negative ionization mode using MZmine (Version 2.39) were also analyzed. […] Chromatograms were detected using the ADAP chromatogram builder (MS level: 1, Minimum group size in number of scans: 5, Group intensity threshold: 5×10^2, minimum highest intensity: 10^5, m/z tolerance: 10 ppm). […]

[4] = vs saline group, throughout the study

For `CCNC(=O)[C@@H]1CCCN1C(=O)[C@H](CCCN=C(N)N)NC(=O)[C@H](CC(C)C)NC(=O)[C@@H](Cc1c[nH]c2ccccc12)NC(=O)[C@H](Cc1ccc(O)cc1)NC(=O)[C@H](CO)NC(=O)[C@H](Cc1c[nH]c2ccccc12)NC(=O)[C@H](Cc1cnc[nH]1)NC(=O)[C@@H]1CCC(=O)N1` [deslorelin], the presence of deslorelin (dogs; dog, in vivo) is listed as 2.5 months, the “duration of observed effect” value (dogs; dogs) is listed as “at least 6 months” and the adverse events (cat) is listed as “neither serious adverse events nor live threatening events”. For the same molecule, the “duration of effective chemical castration” value (male cats [1]) was “at least 12 months”, the “reversibility of effect at the end of the treatment” value (male cats [1]) was “reversible” and the sexual behaviors (male cats [1]) was “reduced”. For the same molecule, the “onset of efficacy in behavioral reduction” value (male cats [1]; approx.) was 7 to 31 days, the safety concerns (male cats [1]; single or repeated administration, up to 24 months) was “no safety concern” and the “flare in sexual behavior” value (male cats [2]; one 4.7 mg implant) was “No flare in sexual behavior”. The safety concerns (male cats [2]; one 4.7 mg implant, up to M12) was “no safety concerns”, the Sexual behavior scores (male cats [2]; [4]) was “decreased significantly” and the testicular volumes (male cats [2]; [4]) was “decreased significantly”. For the same molecule, the urine odour (male cats [2]; [4]) was “decreased significantly”, the “visibility of penile spines” value (male cats [2]; [4]) was “decreased significantly” and the “levels of cadaverine, indole, paracresol, isovalthine and isobuteine” value ([3]; individually or together at least by two, summary of Example 3 data) was “down regulate”. For the same molecule, the “p-coumaroylputrescine concentration in urine” value ([3]; male cat urine, as a function of time, chemically treated group vs control group) was “decrease”.
